# Columns and labels:
# Type in all cases: in vivo, mouse
# Gabrb3^fl/fl littermates = experiment: Prenatal NAD+ treatment, H&E of MGE in Gabrb3^fl/fl littermates; settings: NAD^+-treated Gabrb3^fl/fl littermates
# Method: Histology, immunohistochemistry, and microscopic analysis: Paraffin immunohistochemistry (IHC) was performed on embryonic brains only while frozen section IHC was used on both embryonic and adult brains. Briefly, for paraffin IHC-E18 brains were fixed in zinc fixative (BD Biosciences PharMingen) for 24 h and processed for paraffin histology. Histological stainings with hematoxylin (Vector Laboratories) and eosin (Sigma) were performed on 8 μm coronal sections. Lectin histochemistry (with biotinylated isolectin B4, 1:50, Sigma) as well as IHC was performed on 20 μm sections. Primary antibodies used for IHC were as follows: anti-PHH3 (1:200, Millipore) and anti-NKX2.1, (1:50; Sigma) followed by secondary detection with AlexaFluor conjugates (Invitrogen). DAPI (Vector Laboratories) was used to label nuclei. For frozen section IHC, E18 and P90 brains were removed, fixed in 4% PFA for 24 hours, cryo-protected in sucrose gradient, embedded into OCT medium for frozen blocks; sectioned at 40 μm on a cryostat and immunostained with anti-GABA (1:80, Sigma) and anti -PROX1 (1:80, Millipore) antibodies. Twenty sections from each brain were used for IHC and histology experiments. Uniform penetration of antibodies or stains throughout the section was ascertained and quality of the staining in each digital section was examined. […]
# [1] = test system: Gabrb3^ECKO endothelial cells; experiment: qRT-PCR of periventricular endothelial cells after prenatal treatment
# Method: Primary culture of endothelial cells and endothelial cell staining: Embryonic brains were dissected under a stereo-microscope, after the NAD^+ treatment paradigm and the telencephalon was removed. Pial membranes were peeled off. Telencephalon without pial membranes from the periventricular region was pooled. Purity of endothelial cell cultures was established with endothelial cell markers and determined to be one hundred percent. Isolation and culture of endothelial cells were performed according to published methodology. Periventricular endothelial cells were prepared from CD1 (wild type), saline-treated Gabrb3^fl/fl, saline-treated Gabrb3^ECKO, and NAD^+-treated Gabrb3^ECKO embryos. Endothelial cells were labeled with anti-biotinylated isolectinB4 (1:100, Sigma), anti-GABA (1:400, Sigma), anti-DAXX (1:100, Santa Cruz Biotechnology) and anti-P2X4 (1:100, Abclonal) followed by secondary detection with AlexaFluor conjugates (Invitrogen). DAPI (Invitrogen) was used to label nuclei. Images were taken on an FSX100 microscope (Olympus). 1 million cells were examined for each immunohistochemistry condition.
# Quantitative real-time PCR: RT was performed by using iScript Reverse Transcription Supermix kit (Bio-Rad). PCR reactions were run on a CFX96 Touch Real Time PCR (Bio-Rad) with SsoAdvanced™ Universal SYBR® Green Supermix (Bio-Rad). Primers for qPCR (Daxx, P2x4, P2x7, P2y13, Tek, vwf, F2r, Sirt2, Nos1, Nrp1, Pax6, Gad1, Gad2, Grin2a, Trpm2, Trpc4 and Trpv6) were obtained from Thermo Fisher Scientific. The housekeeping gene Gapdh was used as a reference. The relative gene expression and subsequent fold changes among different samples were determined according to published methodology.
# To gain mechanistic insights into NAD^+ action on endothelial cells, periventricular endothelial cells were isolated from saline-treated Gabrb3^fl/fl, saline-treated Gabrb3^ECKO, and NAD^+-treated Gabrb3^ECKO groups at the end of the treatment paradigm. […] GABA is synthesized from glutamate by Gad genes. […] The qRT-PCR gene expression levels followed a similar trend with that of the levels in the microarray data, reinforcing that the whole-tissue microarray was capable of highlighting some endothelial cells specific gene changes (FIGS. 10A-10I). […] Taken together, our results implicate NAD^+ as a critical modulator of angiogenesis in the embryonic forebrain.
# Gabrb3^ECKO mice = experiment: Self-grooming; settings: after prenatal treatment
# Method: (§1) Behavioral Experiments: Mice were housed in our animal facility with a 12-hour light cycle with ad libitum access to food and water. Offspring stayed with their mothers until weaning at PND 21 after which males and females were separated. Before all behavioral testing, mice were acclimated to the testing room for 1 hour. Behavioral assays were performed according to established protocols referenced here: self-grooming, light-dark box, tail suspension test, Y-maze, open field locomotion activity, three chamber social interaction test and nest building with nestlets and with shredded paper. Both males and females were used for all behavioral assays. Experimenters scoring behaviors were blinded to the genotypes and treatment. Sample sizes for each assay are noted in figure legends.
# Therefore, behavioral tests were performed to screen for stress, anxiety, locomotion, cognition, and sociability in saline-treated Gabrb3^fl/fl mice, saline-treated Gabrb3^ECKO mice and NAD^+-treated Gabrb3^ECKO mice. Mice from saline and NAD^+-treated groups were housed individually in cages containing wood chip bedding and two nestlets (pressed cotton) (FIGS. 16A-16D) or more naturalistic material like shredded paper strips (FIGS. 16E-16H). […] This rescue of home cage social behavior was a robust indication of well-being in NAD^+-treated Gabrb3^ECKO mice. […]
# Gabrb3^fl/fl mice = experiment: Nesting and grooming behavior of NAD+ treated Gabrb3^fl/fl mice; settings: NAD+ vs saline treated Gabrb3^fl/fl mice
# Method: Certain embodiments treat an individual at a dosage of approximately 10 mg/kg—for example, for a 60-70 kg human, a dosage would be approximately 600-700 mg. Some embodiments treat at a dosage higher than 10 mg/kg, such as up to 40 mg/kg. In many embodiments excess NAD+ may be removed from the body without deleterious effects. FIGS. 1D-1F illustrate exemplary data showing no deleterious effects from treating wildtype mice with NAD+. […] As excess NAD+ may be removed without significant effect to a treated individual, some embodiments treat a person prophylactically.
# as §1
# [2] = periventricular endothelial cells after prenatal treatment
smiles,measurement,setting,value
NC(=O)c1ccc[n+]([C@@H]2O[C@H](COP(=O)([O-])OP(=O)(O)OC[C@H]3O[C@@H](n4cnc5c(N)ncnc54)[C@H](O)[C@@H]3O)[C@@H](O)[C@H]2O)c1 [NAD^+],cellular arrangement in MGE (H&E),Gabrb3^fl/fl littermates,the same distinct cellular arrangement in the MGE
same,P2X7 and P2Y13 mRNA expression,[1]; after NAD^+ treatment,rescue of P2X7 and P2Y13 mRNA expression
same,Gad1 and Gad2 expression by qRT-PCR,[1]; [2],concurrently rescued
same,"calcium signaling genes (Grin2a, Trpm2, Trpc4, Trpv6) by qRT-PCR",[1]; [2],rescue of several calcium signaling genes
same,"expression of angiogenesis regulators (Tek, vWF, F2r, Sirt2, Nos1, Pax6) by qRT-PCR",[1]; [2],restored the expression of several critical regulators of angiogenesis
same,severe grooming behavior,Gabrb3^ECKO mice,ameliorated
same,grooming behavior,Gabrb3^fl/fl mice,no significant change in grooming behavior
same,nesting behavior,Gabrb3^fl/fl mice; untorn nestlet and shredded paper,no significant difference in nesting behavior

# From patent publication US20220096515A1, “Methods and Formulations for Preventing Neurological or Psychiatric Disorders” (Huntington Medical Research Institutes, priority 2020, published 2022)
